Where two headings read alike, the source gives them in different places.
Assays:
metastases = details: cited from earlier work
[1] = test system: tumor lesions (bone metastases or lymph node metastases); assay: Whole-body planar and SPECT/CT imaging-based dosimetry of tumor lesions; type: in vivo, human; details: n = 17 tumor lesions
[2] = Whole-body planar and SPECT/CT imaging-based dosimetry of normal organs (kidneys, liver, parotid and submandibular glands); type: in vivo, human
[3] = cited from earlier work
[4] = all metastases, ref Okamoto et al. [53]
[5] = bone metastases, ref Violet et al. [52]
[6] = lymph node metastases, ref Violet et al. [52]
[7] = kidneys, mean ± SD, 6 mCRPC patients
[8] = liver, mean ± SD, 6 mCRPC patients
[9] = parotid gland, mean ± SD, 6 mCRPC patients
[10] = submandibular gland, mean ± SD, 6 mCRPC patients

Question: For `O=C([O-])CC[C@H](NC(=O)N[C@@H](CCCCNC(=O)CCCCCCC(=O)NCCCC[C@@H](NC(=O)[C@@H](Cc1ccccc1)NC(=O)[C@@H](Cc1ccc(O)c(I)c1)NC(=O)CC[C@H](C(=O)[O-])N1CCN(CC(=O)[O-])CCN(CC(=O)[O-])CCN(CC(=O)[O-])CC1)C(=O)[O-])C(=O)[O-])C(=O)[O-].[177Lu+3].[H+].[H+].[H+].[H+].[H+]` [[^177Lu]Lu-PSMA I&T], which “Absorbed dose, range” value (metastases; [4]) is on record?
Answer: 0.22 - 12.03 Gy/GBq

Question: What about the Mean absorbed dose (metastases; [4]) of the same molecule?
Answer: 3.2 ± 2.6 Gy/GBq

Question: Which “Absorbed dose of the tumor lesions, range” value ([1]; 6 mCRPC patients) does the source give for [^177Lu]Lu-PSMA-617 here?
Answer: 0.42 - 12.91 Gy/GBq

Question: And the “Mean absorbed dose of the tumor lesions” value ([1]; 6 mCRPC patients, mean ± SD)?
Answer: 2.59 ± 3.30 Gy/GBq

Question: What about the “Effective half-life in tumor lesions (mean)” value ([1]; mean ± SD) of the same molecule?
Answer: 35.3 ± 6.3 h

Question: What about the “Absorbed dose, range” value (metastases; [5]) of the same molecule?
Answer: 0.41-10.71 Gy/GBq

Question: What about the Mean absorbed dose (metastases; [5]) of the same molecule?
Answer: 5.28 Gy/GBq

Question: And the “Absorbed dose, range” value (metastases; [6])?
Answer: 0.52-16.23 Gy/GBq

Question: And the Mean absorbed dose (metastases; [6])?
Answer: 3.91 Gy/GBq

Question: And the “A (% injected A0), monoexponential curve-fitting parameter” value (from here on “A (% injected A0)”) [2, 7]?
Answer: 4.80 ± 1.94 % injected A0

Question: And the Absorbed dose [2, 7]?
Answer: 0.545 ± 0.231 mGy/MBq

Question: What about the Mean absorbed dose [2, 7] of the same molecule?
Answer: 0.545 ± 0.231 Gy/GBq

Question: And the “TIAC (time-integrated activity coefficient)” value (from here on “TIAC”) [2, 7]?
Answer: 1.59 ± 0.68 h

Question: And the “λ, monoexponential curve-fitting parameter” value [2, 7]?
Answer: 0.028 ± 0.011 h⁻¹

Question: And the “A (% injected A0)” value [2, 8]?
Answer: 2.28 ± 0.88 % injected A0

Question: What about the Absorbed dose [2, 8] of the same molecule?
Answer: 0.103 ± 0.057 mGy/MBq

Question: And the “TIAC” value [2, 8]?
Answer: 1.65 ± 1.36 h

Question: What about the “λ, monoexponential curve-fitting parameter” value [2, 8] of the same molecule?
Answer: 0.030 ± 0.009 h⁻¹

Question: What about the “A (% injected A0)” value [2, 9] of the same molecule?
Answer: 0.53 ± 0.20 % injected A0

Question: And the Absorbed dose [2, 9]?
Answer: 0.333 ± 0.194 mGy/MBq

Question: And the “TIAC” value [2, 9]?
Answer: 0.13 ± 0.09 h

Question: And the “λ, monoexponential curve-fitting parameter” value [2, 9]?
Answer: 0.031 ± 0.005 h⁻¹

Question: What about the Individual absorbed dose ([2]; patient 1 (pre-treatment N, C, L, R), kidneys) of the same molecule?
Answer: 0.666 mGy/MBq

Question: And the Individual absorbed dose ([2]; patient 1 (pre-treatment N, C, L, R), liver)?
Answer: 0.199 mGy/MBq

Question: And the Individual absorbed dose ([2]; patient 1 (pre-treatment N, C, L, R), parotid gland)?
Answer: 0.398 mGy/MBq

Question: And the Individual absorbed dose ([2]; patient 1 (pre-treatment N, C, L, R), submandibular gland)?
Answer: 0.309 mGy/MBq

Question: And the Individual absorbed dose ([2]; patient 2 (pre-treatment N, C, L, A, R), kidneys)?
Answer: 0.492 mGy/MBq

Question: What about the Individual absorbed dose ([2]; patient 2 (pre-treatment N, C, L, A, R), liver) of the same molecule?
Answer: 0.138 mGy/MBq

Question: What about the Individual absorbed dose ([2]; patient 2 (pre-treatment N, C, L, A, R), parotid gland) of the same molecule?
Answer: 0.150 mGy/MBq

Question: What about the Individual absorbed dose ([2]; patient 2 (pre-treatment N, C, L, A, R), submandibular gland) of the same molecule?
Answer: 0.190 mGy/MBq

Question: What about the Individual absorbed dose ([2]; patient 3 (pre-treatment N, C, L, A, R), kidneys) of the same molecule?
Answer: 0.906 mGy/MBq

Question: What about the Individual absorbed dose ([2]; patient 3 (pre-treatment N, C, L, A, R), liver) of the same molecule?
Answer: 0.069 mGy/MBq

Question: And the Individual absorbed dose ([2]; patient 3 (pre-treatment N, C, L, A, R), parotid gland)?
Answer: 0.146 mGy/MBq

Question: And the Individual absorbed dose ([2]; patient 3 (pre-treatment N, C, L, A, R), submandibular gland)?
Answer: 0.112 mGy/MBq

Question: What about the Individual absorbed dose ([2]; patient 4 (pre-treatment N, C, L, A, R), kidneys) of the same molecule?
Answer: 0.674 mGy/MBq

Question: And the Individual absorbed dose ([2]; patient 4 (pre-treatment N, C, L, A, R), liver)?
Answer: 0.125 mGy/MBq

Question: And the Individual absorbed dose ([2]; patient 4 (pre-treatment N, C, L, A, R), parotid gland)?
Answer: 0.703 mGy/MBq

Question: And the Individual absorbed dose ([2]; patient 4 (pre-treatment N, C, L, A, R), submandibular gland)?
Answer: 0.664 mGy/MBq

Question: And the Individual absorbed dose ([2]; patient 5 (pre-treatment N, C, L), kidneys)?
Answer: 0.252 mGy/MBq

Question: And the Individual absorbed dose ([2]; patient 5 (pre-treatment N, C, L), liver)?
Answer: 0.037 mGy/MBq

Question: What about the Individual absorbed dose ([2]; patient 5 (pre-treatment N, C, L), parotid gland) of the same molecule?
Answer: 0.217 mGy/MBq

Question: What about the Individual absorbed dose ([2]; patient 5 (pre-treatment N, C, L), submandibular gland) of the same molecule?
Answer: 0.178 mGy/MBq

Question: What about the Individual absorbed dose ([2]; patient 6 (pre-treatment N, C, L, A), kidneys) of the same molecule?
Answer: 0.278 mGy/MBq

Question: And the Individual absorbed dose ([2]; patient 6 (pre-treatment N, C, L, A), liver)?
Answer: 0.049 mGy/MBq

Question: And the Individual absorbed dose ([2]; patient 6 (pre-treatment N, C, L, A), parotid gland)?
Answer: 0.387 mGy/MBq

Question: What about the Individual absorbed dose ([2]; patient 6 (pre-treatment N, C, L, A), submandibular gland) of the same molecule?
Answer: 0.259 mGy/MBq

Question: And the “A (% injected A0)” value [2, 10]?
Answer: 0.41 ± 0.26 % injected A0

Question: What about the Absorbed dose [2, 10] of the same molecule?
Answer: 0.285 ± 0.180 mGy/MBq

Question: What about the “TIAC” value [2, 10] of the same molecule?
Answer: 0.06 ± 0.05 h

Question: What about the “λ, monoexponential curve-fitting parameter” value [2, 10] of the same molecule?
Answer: 0.030 ± 0.007 h⁻¹

Question: What about the “Patients with grade 1 / 2 xerostomia” value ([3]; REALITY study, ref [16]) of the same molecule?
Answer: 20.9%

Question: What about the “Patients with grade 1 / 2 xerostomia” value ([3]; VISION study, ref [10]) of the same molecule?
Answer: 38.8%

— publication PMC10945337 (Theranostics, 2024)
